Calls of active or inactive are those of the source. No cut-off for these calls is given here.
Key:
CWR22R [1] = experiment: Antiproliferative activity against human AR-positive 22Rv1 cells harboring ARE14 construct assessed as growth inhibition measured after 72 hrs by resazurin dye based fluorescence assay; type: functional; conditions: 22Rv1, 72 h
LNCaP [2] = experiment: Antiproliferative activity against AR-positive human LNCAP cells assessed as cell viability at 40 uM measured after 72 hrs by resazurin dye based fluorescence assay relative to control; type: functional; conditions: read-out: Activity
[3] = target: T1, Androgen receptor (Homo sapiens) (UniProt P10275); conditions: at 10 µM
T1 sequence (whole entry): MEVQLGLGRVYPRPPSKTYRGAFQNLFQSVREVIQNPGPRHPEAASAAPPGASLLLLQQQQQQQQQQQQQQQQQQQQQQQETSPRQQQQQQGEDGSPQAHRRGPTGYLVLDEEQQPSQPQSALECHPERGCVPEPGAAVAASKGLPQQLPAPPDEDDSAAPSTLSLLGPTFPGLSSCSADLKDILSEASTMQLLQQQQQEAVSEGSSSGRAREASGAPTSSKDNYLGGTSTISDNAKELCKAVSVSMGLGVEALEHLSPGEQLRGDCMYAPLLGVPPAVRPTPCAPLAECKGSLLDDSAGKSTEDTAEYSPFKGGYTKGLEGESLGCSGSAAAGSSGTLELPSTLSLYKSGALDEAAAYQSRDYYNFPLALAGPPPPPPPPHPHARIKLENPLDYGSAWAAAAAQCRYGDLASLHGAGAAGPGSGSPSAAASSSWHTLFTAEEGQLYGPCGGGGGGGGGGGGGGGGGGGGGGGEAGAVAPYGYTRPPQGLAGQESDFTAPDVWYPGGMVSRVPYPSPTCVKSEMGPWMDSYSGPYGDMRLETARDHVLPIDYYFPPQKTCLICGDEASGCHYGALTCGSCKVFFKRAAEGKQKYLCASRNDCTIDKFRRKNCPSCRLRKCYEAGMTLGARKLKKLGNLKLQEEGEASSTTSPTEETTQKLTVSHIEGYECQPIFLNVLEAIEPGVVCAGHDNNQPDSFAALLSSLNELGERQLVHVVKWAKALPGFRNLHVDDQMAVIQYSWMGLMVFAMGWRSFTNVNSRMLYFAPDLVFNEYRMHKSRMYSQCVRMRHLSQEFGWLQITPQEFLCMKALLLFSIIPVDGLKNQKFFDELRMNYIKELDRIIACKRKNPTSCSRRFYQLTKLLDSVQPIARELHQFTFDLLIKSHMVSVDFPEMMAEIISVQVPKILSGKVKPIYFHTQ
Description: Inhibition of AR transcriptional activity in AR-positive human 22Rv1 cells harboring ARE14 construct assessed as suppression of PSA expression at 10 uM after 24 hrs by immunoblot analysis

CWR22R [4] = experiment: Effect on AR-V7 variant protein expression in AR-positive human 22Rv1 cells harboring ARE14 construct at 10 uM after 24 hrs by immunoblot analysis; type: functional, cell-based
PC-3 [5] = experiment: Antiproliferative activity against AR-negative human PC3 cells assessed as growth inhibition measured after 72 hrs by resazurin dye based fluorescence assay; type: functional; conditions: PC-3, 72 h
LNCaP [6] = experiment: Antiproliferative activity against AR-positive human LNCAP cells assessed as growth inhibition measured after 72 hrs by resazurin dye based fluorescence assay; type: functional
VCaP [7] = experiment: Antiproliferative activity against AR-positive human VCaP cells assessed as cell viability at 40 uM measured after 72 hrs by resazurin dye based fluorescence assay relative to control; type: functional; conditions: read-out: Activity
PC-3 [8] = experiment: Antiproliferative activity against AR-negative human PC3 cells assessed as cell viability at 40 uM measured after 72 hrs by resazurin dye based fluorescence assay relative to control; type: functional; conditions: PC-3, 72 h, read-out: Activity
LAPC4 [9] = experiment: Antiproliferative activity against AR-positive human LAPC4 cells assessed as cell viability at 40 uM measured after 72 hrs by resazurin dye based fluorescence assay relative to control; type: functional; conditions: LAPC4, 72 h, read-out: Activity
[10] = target: T1, Androgen receptor (Homo sapiens); conditions: at 10 µM; remark: listed apart in the source
Description: Inhibition of R1881 induced-AR transcriptional activity in AR-positive human 22Rv1 cells harboring ARE14 construct at 10 uM after 24 hrs by luciferase assay

CWR22R [11] = experiment: Antiproliferative activity against AR-positive human 22Rv1 cells harboring ARE14 construct assessed as cell viability at 40 uM measured after 72 hrs by resazurin dye based fluorescence assay relative to control; type: functional; conditions: 22Rv1, 72 h, read-out: Activity
LAPC4 [12] = experiment: Antiproliferative activity against AR-positive human LAPC4 cells assessed as growth inhibition measured after 72 hrs by resazurin dye based fluorescence assay; type: functional; conditions: LAPC4, 72 h
VCaP [13] = experiment: Antiproliferative activity against AR-positive human VCaP cells assessed as growth inhibition measured after 72 hrs by resazurin dye based fluorescence assay; type: functional
[14] = target: T1, Androgen receptor (Homo sapiens); conditions: at 10 µM; remark: listed apart in the source
Description: Inhibition of AR transcriptional activity in AR-positive human 22Rv1 cells harboring ARE14 construct assessed as suppression of NKX3.1 expression at 10 uM after 24 hrs by immunoblot analysis

| inhibition [3] | GI50 (PC-3 [5]) [µM] | GI50 (LNCaP [6]) [µM] | inhibition [10] | GI50 (VCaP [13]) [µM] | inhibition [14] | Structure (SMILES) | GI50 (CWR22R [1]) [µM] | viability at 40 µM (LNCaP [2]) [%] | Activity (CWR22R [4]) | viability at 40 µM (VCaP [7]) [%] | viability at 40 µM (PC-3 [8]) [%] | viability at 40 µM (LAPC4 [9]) [%] | viability at 40 µM (CWR22R [11]) [%] | GI50 (LAPC4 [12]) [µM] |
| --- | --- | --- | --- | --- | --- | --- | --- | --- | --- | --- | --- | --- | --- | --- |
| Active | > 40 | > 40 | inactive | > 40 |  | COC(=O)c1nn2c(c1C(=O)OC)C[C@]1(C(C)=O)[C@@H](C[C@H]3[C@@H]4CCC5=CC(=O)CC[C@]5(C)[C@H]4CC[C@@]31C)[C@H]2Cc1ccccc1 | > 40 | 80.6 | inactive | 80.7 | > 100 | 97.2 | 63.3 | > 40 |
|  |  |  |  |  |  | CNC(=O)c1ccc(N2C(=S)N(c3ccc(C#N)c(C(F)(F)F)c3)C(=O)C2(C)C)cc1F [ENZALUTAMIDE] |  | 94.2 |  | 61.2 | 88.7 | 80.3 | 84 |  |
| inactive | > 40 | > 40 | inactive | > 40 | Active | C[C@@H](O)[C@@]12Cc3c(CO)c(CO)nn3C[C@@H]1C[C@H]1[C@@H]3CC=C4C[C@@H](O)CC[C@]4(C)[C@H]3CC[C@@]12C | > 40 | 92.8 | inactive | 96.3 | > 100 | 97.5 | 95.8 | > 40 |
| inactive | > 40 |  | inactive | > 40 | inactive | COC(=O)c1nn2c(c1C(=O)OC)C[C@]1(C(C)=O)[C@@H](C[C@H]3[C@@H]4CC=C5C[C@@H](O)CC[C@]5(C)[C@H]4CC[C@@]31C)C2 | > 40 |  | inactive | > 100 | 71.7 |  | 88 |  |
| inactive | > 40 | > 40 | inactive | > 40 | inactive | COC(=O)c1nn2c(c1C(=O)OC)C[C@]1(C(C)=O)[C@@H](C[C@H]3[C@@H]4CC=C5C[C@@H](O)CC[C@]5(C)[C@H]4CC[C@@]31C)[C@H]2Cc1ccccc1 | > 40 | 83.5 | inactive | 57 | 64.7 | 81.3 | 28.4 | > 40 |
|  | > 40 | > 40 | inactive | > 40 |  | C[C@@H](O)[C@@]12Cc3c(CO)cnn3C[C@@H]1C[C@H]1[C@@H]3CC=C4C[C@@H](O)CC[C@]4(C)[C@H]3CC[C@@]12C | > 40 | 82.8 | inactive | 96.7 | > 100 | 92.2 | 96.3 | > 40 |
| inactive | > 40 |  | inactive | > 40 | Active | COC(=O)c1nn2c(c1C(=O)OC)C[C@]1(C(C)=O)[C@@H](C[C@H]3[C@@H]4CCC5=CC(=O)CC[C@]5(C)[C@H]4CC[C@@]31C)C2 | > 40 |  | inactive | 80.3 | 94 |  | 73.5 |  |
| Active | > 40 |  | inactive | > 40 |  | COC(=O)c1cnn2c1C[C@]1(C(C)=O)[C@@H](C[C@H]3[C@@H]4CC=C5C[C@@H](OC(C)=O)CC[C@]5(C)[C@H]4CC[C@@]31C)C2 | > 40 |  | inactive | 84.9 | > 100 |  | 83.3 |  |
| inactive | > 40 | > 40 | inactive | > 40 | inactive | COC(=O)c1nn2c(c1C(=O)OC)C[C@]1(C(C)=O)[C@@H](C[C@H]3[C@@H]4CC=C5C[C@@H](OC(C)=O)CC[C@]5(C)[C@H]4CC[C@@]31C)[C@H]2Cc1ccccc1 | > 40 | 89.7 | inactive | 85.9 | > 100 | > 100 | 15 | > 40 |
| Active | > 40 | > 40 | inactive | > 40 |  | C[C@@H](O)[C@@]12Cc3c(CO)c(CO)nn3[C@H](Cc3ccccc3)[C@@H]1C[C@H]1[C@@H]3CC=C4C[C@@H](O)CC[C@]4(C)[C@H]3CC[C@@]12C | > 40 | 89.7 | inactive | 43 | > 100 | 85.9 | 55.8 | > 40 |

| Structure (SMILES) | inhibition [3] | GI50 (PC-3 [5]) [µM] | GI50 (LNCaP [6]) [µM] | inhibition [10] | GI50 (VCaP [13]) [µM] | inhibition [14] | GI50 (CWR22R [1]) [µM] | viability at 40 µM (LNCaP [2]) [%] | Activity (CWR22R [4]) | viability at 40 µM (VCaP [7]) [%] | viability at 40 µM (PC-3 [8]) [%] | viability at 40 µM (LAPC4 [9]) [%] | viability at 40 µM (CWR22R [11]) [%] | GI50 (LAPC4 [12]) [µM] |
| --- | --- | --- | --- | --- | --- | --- | --- | --- | --- | --- | --- | --- | --- | --- |
| COC(=O)c1cnn2c1C[C@]1(C(C)=O)[C@@H](C[C@H]3[C@@H]4CC=C5C[C@@H](O)CC[C@]5(C)[C@H]4CC[C@@]31C)C2 | Active | > 40 |  | inactive | > 40 | Active | > 40 |  | inactive | 90.4 | 89.6 |  | 78.5 |  |
| CC(=O)[C@@]12Cc3c(C(=O)O)cnn3C[C@@H]1C[C@H]1[C@@H]3CCC4=CC(=O)CC[C@]4(C)[C@H]3CC[C@@]12C | inactive | > 40 |  | inactive | > 40 | inactive | > 40 |  | inactive | 95.7 | > 100 |  | 92.4 |  |

Source: ChEMBL document CHEMBL4364252, “Tetrahydropyrazolo[1,5-a]pyridine-fused steroids and their in vitro biological evaluation in prostate cancer” (2019)
